Laboratory results from patent publication US6953808B2, “Method for treating gastric disorders using optically pure (−) pantoprazole” (Sepracor Inc., priority 1993, dated 2005).

Experiments:
beta-adrenergic = details: cited from earlier work
H^+,K^+-ATPase = H^+,K^+-ATPase (Homo sapiens, UniProt P20648); details: cited from earlier work
[1] = tested on: endogenous acid secretion; assay: Inhibition of endogenous acid secretion in pylorus-ligated rats; type: in vivo, rat; details: ratio of doses for 50% reduction
Source text: This may increase pantoprazole's selectivity for the acid secreting parietal cells, where low pH conditions exist in the intracellular canaliculi. In intact animals, pantoprazole is active in inhibiting gastric acid secretion in both rats and dogs. Specifically, the intravenous and oral doses required to reduce endogenous acid secretion in pylorus-ligated rats by 50% are in the 1-3 μmole/kg range. […] Racemic pantoprazole is also effective at doses less than 5 μmole/kg in inhibiting exogenously stimulated acid secretion induced by a variety of agonists, indicating general activity of the drug in inhibiting acid secretion.

mice [2] = assay: Acute toxicity (LD50) in mice; type: in vivo
duodenal ulcers = details: patients with duodenal ulcers, after four weeks of 20 to 80 mg per day; cited from earlier work
[3] = tested on: endogenous acid secretion; details: pylorus-ligated rats, cited from earlier work
[4] = tested on: exogenously stimulated acid secretion; details: secretion induced by a variety of agonists; cited from earlier work
[5] = neutral and moderately acidic conditions; compared with omeprazole; cited from earlier work
[6] = tested on: hepatic drug metabolizing enzyme systems; details: intact rats and rat microsomal enzyme preparations; compared to omeprazole; cited from earlier work
serum gastrin = details: humans, short-term administration; cited from earlier work
rats = details: two year; cited from earlier work
rat = details: cited from earlier work
mice [7] = details: cited from earlier work

Sequence of H^+,K^+-ATPase (P20648 whole entry): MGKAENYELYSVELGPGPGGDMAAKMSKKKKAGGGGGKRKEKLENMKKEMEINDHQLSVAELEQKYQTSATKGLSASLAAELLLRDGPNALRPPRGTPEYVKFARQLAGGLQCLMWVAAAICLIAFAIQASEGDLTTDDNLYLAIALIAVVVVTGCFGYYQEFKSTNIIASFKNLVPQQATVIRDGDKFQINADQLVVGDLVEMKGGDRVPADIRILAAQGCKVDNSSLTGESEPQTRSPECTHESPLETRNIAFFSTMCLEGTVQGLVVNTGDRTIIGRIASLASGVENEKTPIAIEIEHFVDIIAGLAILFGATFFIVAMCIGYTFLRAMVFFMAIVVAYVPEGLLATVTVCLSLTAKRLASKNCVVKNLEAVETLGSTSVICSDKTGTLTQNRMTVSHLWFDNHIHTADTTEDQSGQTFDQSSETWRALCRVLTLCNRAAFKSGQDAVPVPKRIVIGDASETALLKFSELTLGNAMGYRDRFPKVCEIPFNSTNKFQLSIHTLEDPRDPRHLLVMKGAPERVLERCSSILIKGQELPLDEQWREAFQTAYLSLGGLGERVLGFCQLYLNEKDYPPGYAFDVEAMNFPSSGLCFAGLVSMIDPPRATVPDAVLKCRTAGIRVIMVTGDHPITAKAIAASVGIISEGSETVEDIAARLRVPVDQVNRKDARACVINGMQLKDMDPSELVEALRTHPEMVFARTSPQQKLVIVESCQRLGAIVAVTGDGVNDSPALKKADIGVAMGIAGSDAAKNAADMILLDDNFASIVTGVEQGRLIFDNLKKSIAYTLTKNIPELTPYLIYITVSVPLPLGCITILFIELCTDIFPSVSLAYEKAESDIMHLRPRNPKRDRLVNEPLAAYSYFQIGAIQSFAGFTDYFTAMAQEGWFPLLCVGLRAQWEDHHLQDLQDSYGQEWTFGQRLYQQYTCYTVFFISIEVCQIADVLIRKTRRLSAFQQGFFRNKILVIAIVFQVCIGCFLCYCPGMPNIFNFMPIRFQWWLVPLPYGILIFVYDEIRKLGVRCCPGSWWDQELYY
Sequence of H^+,K^+-ATPase (P51164 whole entry partner): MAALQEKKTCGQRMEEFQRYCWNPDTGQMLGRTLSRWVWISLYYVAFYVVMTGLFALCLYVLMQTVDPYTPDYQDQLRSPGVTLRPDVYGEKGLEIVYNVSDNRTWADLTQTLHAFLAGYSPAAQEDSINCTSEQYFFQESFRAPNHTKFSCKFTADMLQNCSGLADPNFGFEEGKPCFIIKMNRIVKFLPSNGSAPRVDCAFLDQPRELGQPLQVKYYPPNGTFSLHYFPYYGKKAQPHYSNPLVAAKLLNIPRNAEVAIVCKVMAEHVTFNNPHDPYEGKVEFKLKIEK

For `CC(C)NC[C@H](O)COc1cccc2ccccc12` [L-form of propranolol, propranolol], the “potency relative to D-enantiomer” value (beta-adrenergic) is given as 100 times.
For `COc1ccnc(C[S+]([O-])c2nc3cc(OC(F)F)ccc3[n-]2)c1OC.[Na+]` (racemic) [Racemic pantoprazole sodium], the “inhibition of H+,K+-ATPase” value (H^+,K^+-ATPase) is listed as “potent, irreversible inhibitor”.
In the case of `COc1ccnc(C[S+]([O-])c2nc3ccc(OC(F)F)cc3[nH]2)c1OC` (racemic) [racemic pantoprazole], the “calculated oral/intravenous (p.o./i.v.) ratio” value [1] is given as “approximately 2”, the “p.o./i.v. LD50 ratio” value (mice [2]) is given as “approximately 2” and the ulcer healing (duodenal ulcers) is given as 90-100%. For the same compound, the “intravenous dose required to reduce endogenous acid secretion by 50%” value ([3]; intravenous) was 1 to 3 µmol/kg, the “oral dose required to reduce endogenous acid secretion by 50%” value ([3]; oral) was 1 to 3 µmol/kg and the “effective dose inhibiting exogenously stimulated acid secretion” value [4] was “less than 5 μmole/kg”. For the same compound, the chemical stability [5] was “more chemically stable”, the “inhibition of hepatic drug metabolizing enzyme systems” value [6] was “weaker inhibitor” and the “fasting serum gastrin levels” value (serum gastrin) was “significantly elevated”. For the same compound, the “finding in carcinogenicity study” value (rats) was “hepatocellular neoplasia”, the “oral LD50” value (rat; in vivo, po) was > 2,467 μmol/kg and the “intravenous LD50” value (rat; intravenous) was 632 µmol/kg. The “intravenous LD50” value (mice [7]) was 975 µmol/kg.
